Laboratory results published in patent US10786514B2, “Dosage regiment of ferric maltol” (Shield TX (UK) Limited, priority 2015, dated 2020).

Columns and labels:
Type in all cases: in vivo, human
[1] = Phase I pharmacokinetic study: total iron binding capacity (TIBC); settings: over time and across 30, 60, 90 mg dose groups
Description: (§1) These studies were primarily pharmacokinetic and conducted in subjects with iron deficiency having active inflammatory disease or acute chronic inflammation. An open-label, randomised, single and repeat dose parallel group Phase I pharmacokinetic study was carried out to evaluate the effect of single and repeated twice daily (bid) oral doses of ST10 at 30 mg, 60 mg and 90 mg for 8 days.
(§2) On day 1, following fasting for at least 1.5-2 hours beforehand, ST10 was administered (30 mg, 60 mg or 90 mg) and blood samples collected over the following 6 h for analysis. 60 mg was administered as two 30 mg capsules and 90 mg was administered as three 30 mg capsules, both as a single dose. Subjects continued dosing with ST10 on the evening of day 1 then every morning and evening for the next 6 days (Days 2 to 7).
On day 8 following fasting for at least 1.5-2 hours beforehand the last dosing of ST10 was administered (30 mg, 60 mg or 90 mg) and blood samples collected over the following 6 h for analysis. […]
Serum concentrations of transferrin, total iron binding capacity (TIBC), ferritin and soluble transferrin receptor; and reticulocyte haemoglobin concentrations (CHr) in whole blood were measured by central laboratories using appropriately validated methods. […]

[2] = Phase I pharmacokinetic study: tolerability; settings: doses above 30 mg and up to 90 mg twice daily, 8 days, iron-deficient subjects with active inflammatory disease
Description: as §1
(§3) 24 subjects with iron deficiency (with or without anaemia) were randomly allocated to one of the three ST10 dose groups as follows:
(§4) Group 1: 9 subjects received ST10, 30 mg twice daily for 7 days (days 1-7) plus a final 30 mg dose on the morning of day 8.
(§5) Group 2: 8 subjects received ST10, 60 mg twice daily for 7 days (days 1-7) plus a final 60 mg dose on the morning of day 8.
(§6) Group 3: 7 subjects received ST10, 90 mg twice daily for 7 days (days 1-7) plus a final 90 mg dose on the morning of day 8.

[3] = Phase I pharmacokinetic study: serum total iron concentration; settings: for maximum mean serum total iron concentration: Day 1, iron-deficient subjects
Description: as §1, §3, §4, §5, §6, §2
On day 8 following fasting for at least 1.5-2 hours beforehand the last dosing of ST10 was administered (30 mg, 60 mg or 90 mg) and blood samples collected over the following 6 h for analysis.
On Days 1 and 8 blood samples were collected predose (0 h=time of ST10 dose) and at 5 minutes(for NTBI only), 15 minutes, 30 minutes, 45 minutes, and 1, 1.5, 2, 3, 4 and 6 h postdose.
These studies used transferrin saturation and total serum iron as measurements of iron uptake from the gut into the transport mechanisms. In addition serum ferritin was used as a measure of iron storage status at the end of the dosing period; all of these measurements are standard and well recognised.
One subject in the 60 mg dose group prematurely withdrew from the study on Day 7, so full profiles of all serum iron parameters were available in the 30 mg dose group for 9 subjects (days 1 and 8), in the 60 mg dose group 8 subjects on day 1 and for 7 subjects on day 8, and in the 90 mg dose group for 7 subjects (days 1 and 8).

In the case of ferric trimaltol [ST10], the “total iron binding capacity, mean concentration” value [1] was “approximately 70 μmol/L”, the tolerability [2] was “well tolerated” and the “maximum mean serum total iron concentration” value ([3]; 30 mg oral dose group) was 32.3 µmol/L. The “maximum mean serum total iron concentration” value ([3]; 60 mg oral dose group) was 49.1 µmol/L, the “maximum mean serum total iron concentration” value ([3]; 90 mg oral dose group) was 48.7 µmol/L and the “serum total iron concentrations on Day 8 versus Day 1” value ([3]; Day 8, 30, 60, 90 mg dose groups) was “Comparable”.
